Test results: patent US20240344095A1, “PROCESS FOR THE PRODUCTION OF MICROBIAL CELLULOSE USING WASTE TEXTILES” (Sanko Tekstil Isletmeleri San. Ve Tic. A.S., priority 2023, published 2024)

Test system: Gluconacetobacter hansenii ATCC 53582
Assay: Effect of additives in waste textile glucose medium on bacterial cellulose production
Type: cell-based
Conditions: 14 days
Protocol: The bacterial strain Gluconacetobacter hansenii ATCC 53582 was grown in 500 mL of waste textile glucose medium at an incubation temperature of 28° C.-30° C., for 14 days, in a close-lid plastic box. Different experiments were carried out to test the effect of the addition of different additives (TiBALDH, Glycerol, Ascorbic Acid) in different concentration on the production of bacterial cellulose. At the end of the incubation, the amount of the wet bacterial cellulose obtained was determined. Comparisons of wet bacterial amount change (%) in Table 2, 3, 4, and 5 are based on data in Table 1.

[1] = additives marked + at 0.5% Vitamin C, 1% Glycerol, 0.25% TiBALDH in WTG medium

With OCC(O)CO [Glycerol, glycerol] the “Wet BC amount change” value (Glycerol Concentration 0.5 % in WTG medium, compared with Table 1) was 10.93%, the “Wet BC amount change” value (Glycerol Concentration 1.0 % in WTG medium, compared with Table 1) was 19.74% and the “Wet BC amount change” value (Glycerol Concentration 2.0 % in WTG medium, compared with Table 1) was 10.15%. The “Wet BC amount change” value [1] was 19.74%.

With O=C1O[C@H]([C@@H](O)CO)C(O)=C1O [Vitamin C, ascorbic acid] the “Wet BC amount change” value (Vitamin C Concentration 0.25 % in WTG medium, compared with Table 1) was 6.75%, the “Wet BC amount change” value (Vitamin C Concentration 0.50 % in WTG medium, compared with Table 1) was 9.25% and the “Wet BC amount change” value (Vitamin C Concentration 1.00 % in WTG medium, compared with Table 1) was 8.13%. For the same compound, the “Wet BC amount change” value (Vitamin C Concentration 2.00 % in WTG medium, compared with Table 1) was 6.95%, the “Wet BC amount change” value (Vitamin C Concentration 3.00 % in WTG medium, compared with Table 1) was 5.57% and the “Wet BC amount change” value (Vitamin C Concentration 4.00 % in WTG medium, compared with Table 1) was 2.96%. For the same compound, the “Wet BC amount change” value [1] was 9.25%.

With “Titanium (IV) bis-(ammonium lactato) dihydroxide [TiBALDH]” the “Wet BC amount change” value (TiBALDH Concentration 0.0050 % in WTG medium, compared with Table 1) was 7.04%, the “Wet BC amount change” value (TiBALDH Concentration 0.0250 % in WTG medium, compared with Table 1) was 18.10% and the “Wet BC amount change” value (TiBALDH Concentration 0.0500 % in WTG medium, compared with Table 1) was 24.13%. For the same compound, the “Wet BC amount change” value (TiBALDH Concentration 0.2500 % in WTG medium, compared with Table 1) was 55.30%, the “Wet BC amount change” value (TiBALDH Concentration 0.5000 % in WTG medium, compared with Table 1) was 17.10% and the “Wet BC amount change” value (TiBALDH Concentration 1.0000 % in WTG medium, compared with Table 1) was −26.79%. The “Wet BC amount change” value [1] was 55.30%.
